Assay results taken from the supplement of paper PMC11061612.

What was measured:
Test in all cases: Bliss excess, mean over the matrix (fraction); higher = more synergy
NCI-H2795 (Mesothelioma) = test system: NCI-H2795 (Mesothelioma)
In short: (§1)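 Cell lines grown in DMEM/F12 or RPMI with 10% FBS were plated in 1536-well plates and held 24 hours at 37°C, 5% CO2 before 72 hours of exposure to two-drug dose matrices, with DMSO typically at 0.2%. CellTiter-Glo 2.0 luminescence gave viability, which was converted to inhibition. Vehicle wells were set to 0 and blank wells to 1. Combination Emax is the second-highest inhibition in the matrix, and Bliss excess is the observed combination effect minus the expected EA + EB − EA·EB, where EA and EB are the single-agent effects.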

NB14 (Neuroblastoma) = test system: NB14 (Neuroblastoma)
In short: as §1

[1] = test system: HO-1-u-1 (Oral Cavity Carcinoma)
In short: as §1

SH-4 (Melanoma) = test system: SH-4 (Melanoma)
In short: as §1

[2] = test system: OC-314 (Ovarian Carcinoma)
In short: as §1

[3] = test system: SK-OV-3 (Ovarian Carcinoma)
In short: as §1

[4] = test system: HCC-15 (Squamous Cell Lung Carcinoma)
In short: as §1

COLO-829 (Melanoma) = test system: COLO-829 (Melanoma)
In short: as §1

[5] = test system: SW1116 (Colorectal Carcinoma)
In short: as §1

[6] = test system: TE-4 (Esophageal Squamous Cell Carcinoma)
In short: as §1

[7] = test system: SW1271 (Small Cell Lung Carcinoma)
In short: as §1

[8] = test system: KARPAS-231 (B-Cell Non-Hodgkin's Lymphoma)
In short: as §1

[9] = test system: RKO (Colorectal Carcinoma)
In short: as §1

[10] = test system: RT-112 (Bladder Carcinoma)
In short: as §1

[11] = test system: NCI-H69 (Small Cell Lung Carcinoma)
In short: as §1

[12] = test system: SW626 (Colorectal Carcinoma)
In short: as §1

[13] = test system: KYSE-410 (Esophageal Squamous Cell Carcinoma)
In short: as §1

HMV-II (Melanoma) = test system: HMV-II (Melanoma)
In short: as §1

[14] = test system: Hs-633T (Other Solid Carcinomas)
In short: as §1

[15] = test system: K5 (Thyroid Gland Carcinoma)
In short: as §1

SMILES | Bliss excess (NCI-H2795 (Mesothelioma)) | Bliss excess (NB14 (Neuroblastoma)) | Bliss excess [1] | Bliss excess (SH-4 (Melanoma)) | Bliss excess [2] | Bliss excess [3] | Bliss excess [4] | Bliss excess (COLO-829 (Melanoma)) | Bliss excess [5] | Bliss excess [6] | Bliss excess [7] | Bliss excess [8] | Bliss excess [9] | Bliss excess [10] | Bliss excess [11] | Bliss excess [12] | Bliss excess [13] | Bliss excess (HMV-II (Melanoma)) | Bliss excess [14] | Bliss excess [15]
NC1(C(=O)N[C@@H](CCO)c2ccc(Cl)cc2)CCN(c2ncnc3[nH]ccc23)CC1 [Capivasertib] + CC(=O)c1c(C)c2cnc(Nc3ccc(N4CCNCC4)cn3)nc2n(C2CCCC2)c1=O [Palbociclib] (first compound max 10 µM, 7x7, partner max 10 µM) | 0.0247 | 0.0419 | -0.0234 | -0.045 | 0.0028 | -0.0463 | -0.0442 | -0.0549 | -0.0297 | 0.0094 | 0.043 | -0.044 | 0.0625 | -0.0324 | -0.0632 | 0.014 | 0.0199 | -0.0138 | 0.0179 | -0.0106
NC1(C(=O)N[C@@H](CCO)c2ccc(Cl)cc2)CCN(c2ncnc3[nH]ccc23)CC1 [Capivasertib] + CC(C)n1c(=O)n(C)c2cnc3cc(F)c(-c4ccc(OCCCN5CCCCC5)nc4)cc3c21 [AZD1390] (first compound max 10 µM, 7x7, partner max 0.3 µM) | -0.0483 | -0.0269 | -0.0332 | -0.0856 | -0.0412 | -0.0754 | -0.0608 | -0.126 | -0.0335 | -0.0233 | -0.0347 | -0.0035 | -0.0429 | -0.0581 | -0.0793 | -0.0828 | -0.0795 | -0.0435 | -0.0656 | -0.0539
NC1(C(=O)N[C@@H](CCO)c2ccc(Cl)cc2)CCN(c2ncnc3[nH]ccc23)CC1 [Capivasertib] + CCN(CCO)CCCOc1ccc2c(Nc3cc(CC(=O)Nc4cccc(F)c4)[nH]n3)ncnc2c1 [AZD2811] (first compound max 10 µM, 7x7, partner max 1 µM) | 0.0267 | -0.03 | -0.0122 | -0.0507 | -0.015 | -0.0301 | -0.0366 | 0.0142 | -0.0435 | 0.0241 | -0.0113 | -0.111 | -0.0055 | -0.0152 | 0.0132 | -0.0338 | -0.0104 | -0.0457 | 0.0136 | -0.0379
NC1(C(=O)N[C@@H](CCO)c2ccc(Cl)cc2)CCN(c2ncnc3[nH]ccc23)CC1 [Capivasertib] + COc1nnc2ccc(N3CCC(c4ccc(OCCN5CCN(C)C(=O)[C@H]5C)cc4)CC3)nn12 [AZD5153] (first compound max 10 µM, 7x7, partner max 1 µM) | -0.0197 | -0.0216 | 0.0041 | -0.0171 | -0.0135 | -0.0193 | 0.009 | 0.011 | -0.0236 | 0.0684 | 0.0529 | -0.0391 | 0.0048 | 0.0334 | 0.019 | -0.0156 | 0.0437 | 0.014 | 0.0419 | 0.0159
NC1(C(=O)N[C@@H](CCO)c2ccc(Cl)cc2)CCN(c2ncnc3[nH]ccc23)CC1 [Capivasertib] + C[C@@H]1COCCN1C2=NC(=NC(=C2)C3(CC3)[S@](=N)(=O)C)C4=C5C=CNC5=NC=C4 [AZD6738] (first compound max 10 µM, 7x7, partner max 10 µM) | -0.0197 | -0.032 | -0.0167 | -0.036 | -0.024 | -0.0456 | -0.0459 | 0.0403 | -0.011 | -0.0349 | -0.0657 | -0.0334 | -0.0207 | -0.0698 | -0.0397 | -0.0622 | -0.0369 | -0.0717 | -0.0002 | -0.0693
NC1(C(=O)N[C@@H](CCO)c2ccc(Cl)cc2)CCN(c2ncnc3[nH]ccc23)CC1 [Capivasertib] + Cn1cnc2c(F)c(Nc3ccc(Br)cc3Cl)c(C(=O)NOCCO)cc21 [Selumetinib] (first compound max 10 µM, 7x7, partner max 10 µM) | 0.0097 | -0.0654 | 0.126 | -0.0106 | 0.0668 | -0.0629 | 0.0366 | 0.0367 | 0.0203 | 0.102 | 0.0312 | -0.0465 | 0.0463 | 0.01 | -0.0198 | 0.0124 | 0.0521 | -0.005 | 0.0259 | 0.0944
Cc1nc(Nc2ncc(C(=O)Nc3c(C)cccc3Cl)s2)cc(N2CCN(CCO)CC2)n1 [Dasatinib] + CC(=O)Nc1cccc(-n2c(=O)n(C3CC3)c(=O)c3c(Nc4ccc(I)cc4F)n(C)c(=O)c(C)c32)c1 [Trametinib] (first compound max 2 µM, 7x7, partner max 1 µM) | -0.0513 | -0.065 | -0.0219 | -0.0721 | 0.0153 | -0.075 | 0.193 | -0.159 | 0.0459 | -0.12 | 0.119 | -0.0267 | 0.119 | -0.0344 | -0.048 | 0.0385 | -0.0622 | -0.136 | 0.0302 | 0.0175
COc1cccc2c1C(=O)c1c(O)c3c(c(O)c1C2=O)C[C@@](O)(C(=O)CO)C[C@@H]3O[C@H]1C[C@H](N)[C@H](O)[C@H](C)O1 [Doxorubicin] + Cc1cc2ncnn2cc1Nc1ncc2c(n1)n(C1CCOCC1)c(=O)n2C [AZD7648] (first compound max 1 µM, 7x7, partner max 10 µM) | 0.0227 | 0.0203 | 0.0091 | 0.024 | 0.105 | -0.0049 | 0.0127 | 0.0212 | -0.0046 | -0.0039 | 0.0452 | 0.0522 | 0.0473 | 0.151 | 0.0064 | 0.0033 | -0.0448 | 0.062 | 0.118 | 0.0319
COc1cc2ncnc(Nc3ccc(F)c(Cl)c3)c2cc1OCCCN1CCOCC1 [Gefitinib] + CC(C)n1c(=O)n(C)c2cnc3cc(F)c(-c4ccc(OCCCN5CCCCC5)nc4)cc3c21 [AZD1390] (first compound max 10 µM, 7x7, partner max 0.3 µM) | -0.0631 | -0.0145 | -0.0212 | -0.0669 | -0.0314 | -0.0442 | -0.0442 | -0.0599 | -0.0835 | -0.0286 | -0.0388 | -0.0423 | -0.0362 | -0.0548 | -0.0122 | -0.0777 | -0.0779 | -0.0442 | -0.0684 | -0.0479
CS(=O)(=O)CCNCc1ccc(-c2ccc3ncnc(Nc4ccc(OCc5cccc(F)c5)c(Cl)c4)c3c2)o1 [Lapatinib] + C[C@@H](Oc1cc(-c2cnn(C3CCNCC3)c2)cnc1N)c1c(Cl)ccc(F)c1Cl [Crizotinib] (first compound max 10 µM, 7x7, partner max 10 µM) | -0.0569 | -0.0338 | -0.0264 | -0.0365 | -0.0479 | -0.0268 | -0.0179 | -0.0345 | -0.0106 | 0.0198 | -0.03 | 0.0324 | -0.0977 | 0.0155 | -0.0303 | -0.0681 | -0.0183 | -0.11 | -0.0338 | -0.0213
CC(=O)c1c(C)c2cnc(Nc3ccc(N4CCNCC4)cn3)nc2n(C2CCCC2)c1=O [Palbociclib] + CC1(C)CCC(CN2CCN(c3ccc(C(=O)NS(=O)(=O)c4ccc(NCC5CCOCC5)c([N+](=O)[O-])c4)c(Oc4cnc5[nH]ccc5c4)c3)CC2)=C(c2ccc(Cl)cc2)C1 [Venetoclax] (first compound max 10 µM, 7x7, partner max 1 µM) | -0.0365 | -0.0103 | -0.0121 | -0.0734 | -0.0526 | -0.0531 | -0.0364 | 0.0199 | -0.0435 | -0.0113 | -0.0513 | -0.103 | -0.0498 | 0 | -0.0624 | -0.0152 | -0.0511 | -0.0895 | -0.0251 | 0.0216
CC(=O)c1c(C)c2cnc(Nc3ccc(N4CCNCC4)cn3)nc2n(C2CCCC2)c1=O [Palbociclib] + Cc1c2c(nn1C)CSCc1cc(n(C)n1)CSc1cc(c3ccccc3c1)OCCCc1c(C(=O)O)n(C)c3c-2c(Cl)ccc13 [AZD5991] (first compound max 10 µM, 7x7, partner max 1 µM) | 0.0419 | -0.0498 | -0.0069 | -0.0267 | -0.023 | -0.0569 | -0.0501 | -0.0232 | -0.025 | -0.0598 | -0.0193 | -0.0835 | 0.0342 | -0.0524 | -0.0378 | -0.0211 | -0.0657 | -0.0185 | 0.004 | -0.046
